Assay results reported in patent US7880007B2, “Bicyclic substituted phenyl piperidine modulators of muscarinic receptors” (Vertex Pharmaceuticals Incorporated, priority 2004, dated 2011).

What was measured:
Type in all cases: cell-based
[1] = molecular target: T1, M3 muscarinic receptor (Homo sapiens, UniProt P20309); assay: Functional mobilization of intracellular calcium (FLIPR), M3-CHO cells; conditions: for M3 Activity: M3-CHO cells, calcium mobilization (FLIPR)
T1 construct: expressed in transfected cells; host or cells: CHO (M3-CHO)
T1 sequence (P20309 whole entry): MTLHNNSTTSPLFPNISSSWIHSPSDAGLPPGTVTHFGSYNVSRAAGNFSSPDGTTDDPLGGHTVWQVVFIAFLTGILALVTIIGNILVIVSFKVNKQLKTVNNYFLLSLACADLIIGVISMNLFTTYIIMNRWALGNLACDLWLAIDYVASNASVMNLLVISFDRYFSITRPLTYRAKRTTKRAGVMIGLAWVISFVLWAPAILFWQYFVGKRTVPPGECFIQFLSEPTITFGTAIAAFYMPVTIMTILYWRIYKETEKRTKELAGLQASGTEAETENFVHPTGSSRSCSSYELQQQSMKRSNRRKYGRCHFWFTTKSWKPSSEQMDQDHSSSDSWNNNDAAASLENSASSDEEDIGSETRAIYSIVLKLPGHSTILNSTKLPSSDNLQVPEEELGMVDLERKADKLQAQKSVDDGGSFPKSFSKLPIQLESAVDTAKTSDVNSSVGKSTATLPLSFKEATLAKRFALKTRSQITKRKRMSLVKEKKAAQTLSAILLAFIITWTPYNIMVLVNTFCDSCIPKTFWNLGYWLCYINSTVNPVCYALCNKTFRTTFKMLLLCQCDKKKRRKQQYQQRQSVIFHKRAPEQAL
Procedure, shortened: (§1)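 Calcium mobilisation read by FLIPR over 60 s (ex 488/em 540 nm) in recombinant muscarinic CHO lines loaded with calcium dye plus 1 mM probenecid. Compounds tested as agonists alone, or as inhibitors against EC80 carbachol after 15 min pre-incubation or co-addition; 0.5% DMSO; efficacy scaled to carbachol maximal response.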

[2] = molecular target: T2, M4 muscarinic receptor (Homo sapiens, UniProt P08173); assay: Functional mobilization of intracellular calcium (FLIPR), M4-CHO cells; conditions: for M4 Activity: M4-CHO cells, calcium mobilization (FLIPR)
T2 construct: expressed in transfected cells; host or cells: CHO (M4-CHO)
T2 sequence (P08173 1-479): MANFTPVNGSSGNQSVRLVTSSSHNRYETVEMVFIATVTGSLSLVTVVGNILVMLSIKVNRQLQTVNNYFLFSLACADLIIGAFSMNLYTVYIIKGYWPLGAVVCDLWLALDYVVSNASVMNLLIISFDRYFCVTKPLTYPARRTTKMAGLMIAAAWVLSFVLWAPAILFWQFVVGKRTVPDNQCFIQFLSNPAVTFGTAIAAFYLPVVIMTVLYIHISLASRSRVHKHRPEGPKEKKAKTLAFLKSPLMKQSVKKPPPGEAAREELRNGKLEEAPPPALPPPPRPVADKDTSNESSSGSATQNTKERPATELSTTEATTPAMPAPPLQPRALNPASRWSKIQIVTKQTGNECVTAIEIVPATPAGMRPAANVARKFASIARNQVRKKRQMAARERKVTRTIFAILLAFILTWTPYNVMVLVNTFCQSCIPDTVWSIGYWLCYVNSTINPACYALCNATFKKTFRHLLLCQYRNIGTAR
Procedure, shortened: as §1

[3] = molecular target: T3, M2 muscarinic receptor (Homo sapiens, UniProt P08172); assay: Functional mobilization of intracellular calcium (FLIPR), M2-CHO cells; conditions: for M2 Activity: M2-CHO cells, calcium mobilization (FLIPR)
T3 construct: expressed in transfected cells; host or cells: CHO (M2-CHO)
T3 sequence (P08172 1-466): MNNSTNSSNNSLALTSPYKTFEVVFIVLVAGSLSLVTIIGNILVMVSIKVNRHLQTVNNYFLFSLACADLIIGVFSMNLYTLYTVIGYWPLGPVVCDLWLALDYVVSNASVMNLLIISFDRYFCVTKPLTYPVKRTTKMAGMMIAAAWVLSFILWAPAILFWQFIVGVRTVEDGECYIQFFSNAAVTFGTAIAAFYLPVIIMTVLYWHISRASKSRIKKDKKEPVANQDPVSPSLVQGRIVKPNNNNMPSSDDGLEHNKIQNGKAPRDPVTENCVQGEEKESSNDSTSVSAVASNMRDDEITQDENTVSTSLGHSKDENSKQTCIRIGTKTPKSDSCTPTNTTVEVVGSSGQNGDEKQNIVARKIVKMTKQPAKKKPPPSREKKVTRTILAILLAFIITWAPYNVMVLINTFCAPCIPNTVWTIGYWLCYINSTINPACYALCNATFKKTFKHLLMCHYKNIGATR
Procedure, shortened: as §1

[4] = molecular target: T4, M1 muscarinic receptor (Homo sapiens, UniProt P11229); assay: Functional mobilization of intracellular calcium (FLIPR), M1-CHO cells; conditions: for M1 Activity: M1-CHO cells, calcium mobilization (FLIPR)
T4 construct: expressed in transfected cells; host or cells: CHO (M1-CHO)
T4 sequence (P11229 1-460): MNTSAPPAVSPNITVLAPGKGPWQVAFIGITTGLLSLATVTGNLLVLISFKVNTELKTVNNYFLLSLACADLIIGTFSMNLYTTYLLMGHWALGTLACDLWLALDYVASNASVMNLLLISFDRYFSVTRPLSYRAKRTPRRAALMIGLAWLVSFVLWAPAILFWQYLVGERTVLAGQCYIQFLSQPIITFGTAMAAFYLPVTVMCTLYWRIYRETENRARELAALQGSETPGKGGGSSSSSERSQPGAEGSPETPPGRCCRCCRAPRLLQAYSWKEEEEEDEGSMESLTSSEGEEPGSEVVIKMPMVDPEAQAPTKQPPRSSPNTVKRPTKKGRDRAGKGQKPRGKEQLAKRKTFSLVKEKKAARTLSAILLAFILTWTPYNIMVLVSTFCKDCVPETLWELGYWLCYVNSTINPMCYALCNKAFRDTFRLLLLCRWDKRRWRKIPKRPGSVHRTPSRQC
Procedure, shortened: as §1

[5] = 100% efficacy = maximum response obtained with the Carbachol control
[6] = 100% efficacy is the maximum response obtained with the Carbachol control

| SMILES | Emax [1, 5] | M3 Activity [1] | Emax [2, 5] | M4 Activity [2] | Emax [3, 5] | M2 Activity [3] | Emax [4, 5] | M1 Activity [4] | Emax [1, 6] | Emax [2, 6] | Emax [3, 6] | Emax [4, 6] |
| --- | --- | --- | --- | --- | --- | --- | --- | --- | --- | --- | --- | --- |
| c1ccc(C2CCN([C@H]3C[C@H]4CC[C@H]3C4)CC2)c(OCC2CCCCO2)c1 (stereo partly shown) [Compound 147] | < 25% | + (activity was measured to be greater than 5.0 μM) | 25 to 100% | +++ (activity was measured to be less than 1.0 μM) | 25 to 100% | ++ (activity was measured to be from 1.0 μM to 5.0 μM) | 25 to 100% | ++ (activity was measured to be from 1.0 μM to 5.0 μM) |  |  |  |  |
| COc1ccc(Cl)cc1C1(F)CCN(C2CCCCC2)CC1 [Compound 409] |  | + (activity was measured to be greater than 5.0 μM) |  | ++ (activity was measured to be from 1.0 μM to 5.0 μM) |  | + (activity was measured to be greater than 5.0 μM) |  | + (activity was measured to be greater than 5.0 μM) | < 25% | 25 to 100% | 25 to 100% | 25 to 100% |
| CC(=O)COc1ccccc1C1CCN(C2CC3CC[C@H]2C3)CC1 (stereo in doubt) [Compound 53, 1-(2-(1-((1S,2R,4R)-bicyclo[2.2.1]heptan-2-yl)piperidin-4-yl)phenoxy)propan-2-one] | < 25% |  | 25 to 100% |  | 25 to 100% |  | 25 to 100% |  |  |  |  |  |
| COc1ccc(C(=O)COc2ccccc2C2CCN([C@H]3C[C@H]4CC[C@H]3C4)CC2)cc1 [Compound 57] | < 25% | + (activity was measured to be greater than 5.0 μM) | 25 to 100% | ++ (activity was measured to be from 1.0 μM to 5.0 μM) | 25 to 100% | ++ (activity was measured to be from 1.0 μM to 5.0 μM) | 25 to 100% | ++ (activity was measured to be from 1.0 μM to 5.0 μM) |  |  |  |  |
| COc1ccc(-c2ccc(S(=O)(=O)N3CCCC3)cc2)cc1C1CCN(C2CCCCC2)CC1 [Compound 332] | < 25% | + (activity was measured to be greater than 5.0 μM) | 25 to 100% | + (activity was measured to be greater than 5.0 μM) | < 25% | + (activity was measured to be greater than 5.0 μM) | 25 to 100% | + (activity was measured to be greater than 5.0 μM) |  |  |  |  |
| COc1ccc(-c2ccc(C(=O)N3CCCCC3)cc2)cc1C1CCN([C@H]2C[C@H]3CC[C@H]2C3)CC1 [Compound 128] | < 25% | + (activity was measured to be greater than 5.0 μM) | < 25% | ++ (activity was measured to be from 1.0 μM to 5.0 μM) | < 25% | + (activity was measured to be greater than 5.0 μM) | < 25% | + (activity was measured to be greater than 5.0 μM) |  |  |  |  |
| COc1ccccc1C1(O)CCN(C2CC3CCC2C3)CC1 (stereo not shown) [Compound 25] |  | + (activity was measured to be greater than 5.0 μM) | < 25% | + (activity was measured to be greater than 5.0 μM) | < 25% | + (activity was measured to be greater than 5.0 μM) | < 25% | + (activity was measured to be greater than 5.0 μM) |  |  |  |  |
| COc1ccc(-c2ccc(C(=O)Nc3nccs3)cc2)cc1C1CCN(C2CCOCC2)CC1 [Compound 389] |  | + (activity was measured to be greater than 5.0 μM) |  | + (activity was measured to be greater than 5.0 μM) |  | + (activity was measured to be greater than 5.0 μM) |  | + (activity was measured to be greater than 5.0 μM) | < 25% | < 25% | < 25% | < 25% |
| COc1ccc(-c2ccc(NC(C)=O)cc2)cc1C1CCN([C@H]2C[C@H]3CC[C@H]2C3)CC1 [Compound 400] |  | + (activity was measured to be greater than 5.0 μM) |  | + (activity was measured to be greater than 5.0 μM) |  | + (activity was measured to be greater than 5.0 μM) |  | + (activity was measured to be greater than 5.0 μM) | < 25% | < 25% | < 25% | < 25% |
| CCOC(=O)N1CCC(CN2CCC(c3cc(C(F)(F)F)ccc3C)CC2)CC1 [Compound 94] | < 25% | ++ (activity was measured to be from 1.0 μM to 5.0 μM) | 25 to 100% | +++ (activity was measured to be less than 1.0 μM) | 25 to 100% | +++ (activity was measured to be less than 1.0 μM) | 25 to 100% | +++ (activity was measured to be less than 1.0 μM) |  |  |  |  |
| COc1ccc(-c2ccc(C(F)(F)F)cc2)cc1C1CCN([C@H]2C[C@H]3CC[C@H]2C3)CC1 [Compound 120] | < 25% | + (activity was measured to be greater than 5.0 μM) | 25 to 100% | + (activity was measured to be greater than 5.0 μM) | < 25% | + (activity was measured to be greater than 5.0 μM) | 25 to 100% | + (activity was measured to be greater than 5.0 μM) |  |  |  |  |
| COc1ccccc1C1CCN(C2CC[C@@H](C)C2)CC1 (stereo partly shown) [Compound 210] | < 25% | + (activity was measured to be greater than 5.0 μM) | 25 to 100% | +++ (activity was measured to be less than 1.0 μM) | < 25% | + (activity was measured to be greater than 5.0 μM) | 25 to 100% | + (activity was measured to be greater than 5.0 μM) |  |  |  |  |
